{"source": "patent US20170105949A1", "about": "“METHOD FOR IMPROVING FEED EFFICIENCY IN RUMINANTS” (Rivalea (Australia) Pty Ltd, priority 2014, published 2017)", "key": {"[1]": {"test": "Growth performance and feed efficiency of lambs fed pelleted test diets ad libitum (live weight, feed intake by disappearance)", "assay_type": "in vivo, lambs (Border Leister x Merino)", "text": "Lambs were used in this study as the model animal representing ruminants. Previous research has shown similar growth performance, feed efficiency and carcass benefits from the inclusion of Ractopamine in cattle and lamb diets. Given this, it is expected that the outcomes from feeding RAC and caffeine in combination to finishing lambs can be translated to expected results in other ruminants such as cattle. The surprising results found in lambs show promise for use of RAC and caffeine in other ruminants, particularly cattle where RAC is an approved animal feed additive.\n(§1) A total of 36 male lambs (Border Leister x Merino) were selected at approximately 14 weeks of age and housed in pens of two lambs per pen in a naturally ventilated shed. Lambs were fed a commercial lamb finisher diet for a 14 day acclimatisation period prior to the start of the test period. In addition, all lambs were offered 250 g lucerne hay per day as roughage. At the start of the test period, lambs were individually weighed (average weight 29.8 kg±0.29 kg), ear tagged and the pen randomly allocated to one of three dietary treatments:\n(§2) A: Control (no RAC or Caffeine for the entire 56 day test period)\n(§3) B: RAC (20 ppm (20 g/t) RAC for the entire 56 day test period)\n(§4) C: RAC +Caffeine (20 ppm (20 g/t)) RAC offered from day 0 to day 21, followed by 20 ppm (20 g/t) RAC plus 0.5 kg/t caffeine offered from day 21 to day 56).\n(§5) Diets were pelleted and fed ad libitum for the entire test period, while water was also freely available at all times. In addition to the pelleted test feeds, each lamb was offered 200 g lucerne hay per day (floor fed) as an additional source of roughage.\nLambs were shorn prior to entry to the facility to minimise the impact of wool growth on rate of gain measurements and body composition analysis. Individual weights were recorded periodically throughout the test period (Days 0, 21, 35 and 56), while intake of the pelleted test diets was measured by feed disappearance and feed efficiency subsequently calculated.\nNo attempt was made to measure feed residues of the lucerne hay as the lambs consumed this rapidly and the volume of wastage was considered insignificant.\n(§6) Data were subjected to an analysis of variance (ANOVA) for the main effect of dietary treatment. Data for treatments B and C were pooled for the initial 21 day feeding period as both treatment groups were fed the same diet during this time period. The experimental unit for all analyses was the pen of ruminant. All analyses were performed using Genstat 16th Edition (Payne RW, Harding SA, Genstat Committee 2005 Genstat release 8 reference manual, USN International: Oxford UK)."}, "[2]": {"test": "Body composition of lambs by dual energy x-ray absorptiometry (DXA) scanning", "assay_type": "in vivo, lambs (Border Leister x Merino)", "text": "as §1, §2, §3, §4, §5\nDual energy x-ray absorptiometry (DXA) scanning was undertaken using a Hologic X-Ray Bone Densitometer (Hologic Inc, Waltham, Mass., USA) at day 21 and day 56 of the test period. All lambs were weighed on the day of scanning (prior to anaesthesia). Lambs were sedated using xylazine (administered intramuscularly) and anaesthetised with ketamine intra venously under veterinary direction. Once anaesthetised, lambs were positioned in a ventral recumbency with their hind legs extended and forelegs positioned caudally to accommodate the DXA regional analysis software. The whole body scan mode was used for each animal, with the length of the scan adjusted for the length of the lamb. Following DXA analysis, lambs were monitored by a veterinarian for full recovery from anaesthesia. As the DXA software generates body composition estimates for humans, the raw DXA output from each scan was adjusted for lambs using equations developed by comparisons with actual empty body chemical composition (Hunter 2000).\nas §6"}, "[3]": {"conditions": "RAC 20 ppm throughout, RAC + Caffeine: 0.5 kg/t caffeine added from day 21, day 0 weight as covariate"}, "[4]": {"conditions": "RAC 20 ppm, RAC + Caffeine: 20 ppm RAC plus 0.5 kg/t caffeine from day 21"}, "[5]": {"conditions": "day 0 to day 21, 20 ppm RAC in diet, treatments B and C pooled"}, "[6]": {"conditions": "entire test period, RAC 20 ppm, RAC + Caffeine: caffeine 0.5 kg/t added day 21-56"}, "[7]": {"conditions": "DXA, RAC 20 ppm day 0-56, RAC + Caffeine: caffeine 0.5 kg/t added day 21-56, live weight day 56 as covariate"}, "[8]": {"conditions": "DXA, RAC treatment groups pooled, 20 ppm RAC day 0-21"}, "[9]": {"conditions": "DXA, both groups 20 ppm RAC day 0-21, live weight day 21 as covariate"}}, "note": "Structures can show the parent of a compound that is named as a salt.", "data": [{"smiles": "CC(CCc1ccc(O)cc1)NCC(O)c1ccc(O)cc1", "note": "(racemic) [RAC, Ractopamine hydrochloride]", "values": [{"measurement": "Live weight day 21", "setting": "[1]; 20 ppm RAC in diet day 0-21, treatments B and C pooled, day 0 weight as covariate", "result": 37.9, "unit": "kg"}, {"measurement": "Live weight Day 35", "setting": "[1]; [3]", "result": 43.6, "unit": "kg"}, {"measurement": "Live weight Day 56", "setting": "[1]; [3]", "result": 47.3, "unit": "kg"}, {"measurement": "ADFI Day 21-35", "setting": "[1]; [4]", "result": 1.77, "unit": "kg/day"}, {"measurement": "ADFI Day 21-56", "setting": "[1]; [4]", "result": 1.82, "unit": "kg/day"}, {"measurement": "ADFI Day 35-56", "setting": "[1]; [4]", "result": 1.77, "unit": "kg/day"}, {"measurement": "ADG Day 21-35", "setting": "[1]; [4]", "result": 0.380, "unit": "kg/day"}, {"measurement": "ADG Day 21-56", "setting": "[1]; [4]", "result": 0.266, "unit": "kg/day"}, {"measurement": "ADG Day 35-56", "setting": "[1]; [4]", "result": 0.177, "unit": "kg/day"}, {"measurement": "FCE Day 21-35", "setting": "[1]; [4]", "result": 0.214, "unit": "gain/feed"}, {"measurement": "FCE Day 21-56", "setting": "[1]; [4]", "result": 0.144, "unit": "gain/feed"}, {"measurement": "FCE Day 35-56", "setting": "[1]; [4]", "result": 0.113, "unit": "gain/feed"}, {"measurement": "ADFI", "setting": "[1]; [5]", "result": 1.40, "unit": "kg/day"}, {"measurement": "ADG", "setting": "[1]; [5]", "result": 0.388, "unit": "kg/day"}, {"measurement": "FCE (gain/feed)", "setting": "[1]; [5]", "result": 0.28, "unit": "gain/feed"}, {"measurement": "ADFI Day 0-56", "setting": "[1]; [6]", "result": 1.67, "unit": "kg/day"}, {"measurement": "ADG Day 0-56", "setting": "[1]; [6]", "result": 0.317, "unit": "kg/day"}, {"measurement": "FCE Day 0-56", "setting": "[1]; [6]", "result": 0.189, "unit": "gain/feed"}, {"measurement": "Live weight Day 21", "setting": "[1]; three treatments, both groups 20 ppm RAC day 0-21, day 0 weight as covariate", "result": 38.2, "unit": "kg"}, {"measurement": "Adipose tissue (%) Day 56", "setting": "[2]; [7]", "result": 22.90, "unit": "%"}, {"measurement": "Bone mineral content (%) Day 56", "setting": "[2]; [7]", "result": 3.01, "unit": "%"}, {"measurement": "Lean tissue (%) Day 56", "setting": "[2]; [7]", "result": 72.64, "unit": "%"}, {"measurement": "adipose tissue at day 21, pooled data", "setting": "[2]; [8]", "result": 19.24, "unit": "%"}, {"measurement": "percentage of lean tissue at day 21, pooled data", "setting": "[2]; [8]", "result": 76.83, "unit": "%"}, {"measurement": "Adipose tissue (%) Day 21", "setting": "[2]; [9]", "result": 19.18, "unit": "%"}, {"measurement": "Bone mineral content (%) Day 21", "setting": "[2]; [9]", "result": 2.95, "unit": "%"}, {"measurement": "Lean tissue (%) Day 21", "setting": "[2]; [9]", "result": 76.84, "unit": "%"}, {"measurement": "Feed efficiency for lean tissue deposition (kg lean tissue gain: kg feed intake) Day 21-56", "setting": "[2]; [4]", "result": "0.073 kg lean tissue gain: kg feed intake"}]}]}
